Source: PMC4010497, “Synthesis and Evaluation of Fluorine-Substituted Phenyl Acetate Derivatives as Ultra-Short Recovery Sedative/Hypnotic Agents” (PLoS ONE, 2014)

Legend:
[1] = in vivo; conditions: mouse, in vivo; mice, 95% confidence limits
Description: (§1) The LD50 was determined in mice, rats, and rabbits and the TI was calculated as LD50/HD50.

[2] = system: mice; test: in vivo; conditions: LD50/HD50
Description: as §1

[3] = system: rat; test: Therapeutic index (LD50/HD50) in rat; assay type: in vivo
Description: as §1

[4] = system: rabbits; test: Hypnosis in response to IV infusion in rabbits; assay type: in vivo, rabbit
Description: Induction of hypnosis in rabbits was achieved using 2× HD50 dose of test compound, and immediately after induction, infusion via the tail vein was commenced at half the HD50 dosage per min. the infusion rate was maintained for 20 min or 1 h or 3 h later. The depth of hypnosis was monitored by the magnitude of a withdrawal reflex to intermittent paw pinch provided by a pair of forceps.

[5] = biological target: T1, human GABAA receptor α1, β2 and γ2 (CHO-K1 cells) (Homo sapiens, UniProt P14867+P18507+P47870); test: cell-based; conditions: GABAA (α1β2γ2) CHO-K1 cell
T1 construct: expressed in transfected cells; host or cells: CHO-K1 cells, stably transfected
Description: Chinese hamster ovary (CHO)-K1 cells transfected stably with human GABAA receptor α1, β2 and γ2 subunit cDNAs were used. The cells were plated onto collagen-coated 35-mm cell culture dishes at low density for 1–7 days before recording. Test solutions were prepared in the extracellular solution on the day the patch-clamp assay was performed. The intracellular solution consisted of 22 mM KCl, 110 mM K-aspartate, 8 mM NaCl, 1 mM MgCl2, 1 mM CaCl2, 10 mM ethylene glycol tetraacetic acid, 5 mM Na2ATP, 10 mM hydroxyethyl piperazineethanesulfonic acid (HEPES) (adjusted to pH 7.2 using KOH), while the extracellular solution contained 145 mM NaCl, 4 mM KCl, 2 mM CaCl2, 2 mM MgCl2, 10 mM HEPES (adjusted to pH 7.4 using NaOH). The assay was performed at room temperature. Cells were maintained at −70 mV and the potentiation effect was assessed by co-application of the test compound with EC20 of muscimol after the cell was pre-incubated with the test compound for 45 s. GABA EC20 measured individually in each cell. The amplitude of the Cl− current in response to muscimol and/or test compound was determined. The response to the co-application of the test compound and muscimol was normalized to the control muscimol response as a percentage of the control. A potentiation effect was indicated by a value >100% of the control response. EC50 values were calculated using the four parameter logistic equation, where E was the amplitude of the muscimol-induced current in the presence of the anesthetic at concentration [A], EMAX was the amplitude of the response in the presence of a maximally effective concentration of the anesthetic, EC50 was the concentration of anesthetic producing a half-maximal enhancement of the muscimol-induced response and nH was the Hill coefficient. [drawing 1]

[6] = In vitro metabolic half-life in rat whole blood; assay type: in vitro ADME; conditions: male, Sprague-Dawley Rat (n = 3), 37°C, read-out: Mean t1/2 Value
Description: (§2) Human whole blood stability experiments were conducted in whole blood from four human donors (male, 18–25 years). Single experiments were conducted with pooled blood from Sprague-Dawley rats (male, 8 weeks, n = 3), New Zealand White rabbits (male, 8–10 weeks, n = 3), Beagle dogs (male, 2–3 years, n = 3) and Cynomolgus monkeys (male, 3–4 years, n = 3). All the blood samples were provided by Xuzhou Medical College. A 1.35-ml aliquot of blood was warmed at 37°C for 5 min and hypnotic (from a 40 mM stock in DMSO solution) was added to a final concentration of 200 µM. After the specified incubation time, a 150-µl sample was removed and the metabolic reaction was quenched using 150-µl acetonitrile. Zero time-point samples were prepared by adding 150-µl acetonitrile (using a 4 mM stock in DMSO) to 150-µl blood before addition of the hypnotic. The quenched samples were centrifuged, and the supernatant was separated and stored at −20°C until analyzed. Hypnotic concentrations in thawed samples were determined by high-performance liquid chromatography using a 3-µm phenyl 4.6×50-mm C-A-25, ACE column with the UV detector set at 240 nm. […] The lower limit of quantitation of this assay is 3 µM and the accuracy within 15% at 10 µM. The metabolic half-lives were quantified from the incubation time-dependent change in drug concentration.

[7] = In vitro metabolic half-life in rabbit whole blood; assay type: in vitro ADME; conditions: male, New Zealand White rabbit (n = 3), 37°C, read-out: Mean t1/2 Value
Description: as §2

[8] = In vitro metabolic half-life in dog whole blood; assay type: in vitro ADME, Beagle dog
Description: Human whole blood stability experiments were conducted in whole blood from four human donors (male, 18–25 years). Single experiments were conducted with pooled blood from Sprague-Dawley rats (male, 8 weeks, n = 3), New Zealand White rabbits (male, 8–10 weeks, n = 3), Beagle dogs (male, 2–3 years, n = 3) and Cynomolgus monkeys (male, 3–4 years, n = 3). All the blood samples were provided by Xuzhou Medical College. A 1.35-ml aliquot of blood was warmed at 37°C for 5 min and hypnotic (from a 40 mM stock in DMSO solution) was added to a final concentration of 200 µM. After the specified incubation time, a 150-µl sample was removed and the metabolic reaction was quenched using 150-µl acetonitrile. Zero time-point samples were prepared by adding 150-µl acetonitrile (using a 4 mM stock in DMSO) to 150-µl blood before addition of the hypnotic. The quenched samples were centrifuged, and the supernatant was separated and stored at −20°C until analyzed. Hypnotic concentrations in thawed samples were determined by high-performance liquid chromatography using a 3-µm phenyl 4.6×50-mm C-A-25, ACE column with the UV detector set at 240 nm. A linear gradient 20–45% acetonitrile in water with 0.05% trifluoroacetic acid was run for more than 20 min at a flow rate of 1 ml/min. The lower limit of quantitation of this assay is 3 µM and the accuracy within 15% at 10 µM. The metabolic half-lives were quantified from the incubation time-dependent change in drug concentration.

[9] = Octanol:water partition coefficient; assay type: physicochemical; conditions: water buffered with 10 mm Tris (pH 7.4)
Description: One mg of each hypnotic was added to 10 ml of water buffered with 10 mm Tris (pH 7.4) and 1 ml of octanol. The mixture was stirred overnight and then centrifuged to fully separate the organic and aqueous phases. The relative hypnotic concentration in each phase (i.e., the partition coefficient) was determined by high-performance liquid chromatography as described for blood.

T1 sequence (P14867 28-456): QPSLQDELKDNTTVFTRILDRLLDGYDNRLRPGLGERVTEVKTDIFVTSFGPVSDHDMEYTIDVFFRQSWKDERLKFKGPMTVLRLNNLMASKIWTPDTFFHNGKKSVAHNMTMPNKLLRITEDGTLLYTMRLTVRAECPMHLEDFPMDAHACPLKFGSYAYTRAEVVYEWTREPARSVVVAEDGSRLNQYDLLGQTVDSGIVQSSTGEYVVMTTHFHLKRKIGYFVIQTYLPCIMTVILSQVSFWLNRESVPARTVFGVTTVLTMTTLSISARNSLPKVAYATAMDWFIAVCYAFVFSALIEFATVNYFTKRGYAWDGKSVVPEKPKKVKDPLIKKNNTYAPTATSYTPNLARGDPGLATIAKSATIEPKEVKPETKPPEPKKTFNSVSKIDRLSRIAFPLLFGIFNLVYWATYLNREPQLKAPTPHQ
T1 sequence (P47870 25-512 limits assumed): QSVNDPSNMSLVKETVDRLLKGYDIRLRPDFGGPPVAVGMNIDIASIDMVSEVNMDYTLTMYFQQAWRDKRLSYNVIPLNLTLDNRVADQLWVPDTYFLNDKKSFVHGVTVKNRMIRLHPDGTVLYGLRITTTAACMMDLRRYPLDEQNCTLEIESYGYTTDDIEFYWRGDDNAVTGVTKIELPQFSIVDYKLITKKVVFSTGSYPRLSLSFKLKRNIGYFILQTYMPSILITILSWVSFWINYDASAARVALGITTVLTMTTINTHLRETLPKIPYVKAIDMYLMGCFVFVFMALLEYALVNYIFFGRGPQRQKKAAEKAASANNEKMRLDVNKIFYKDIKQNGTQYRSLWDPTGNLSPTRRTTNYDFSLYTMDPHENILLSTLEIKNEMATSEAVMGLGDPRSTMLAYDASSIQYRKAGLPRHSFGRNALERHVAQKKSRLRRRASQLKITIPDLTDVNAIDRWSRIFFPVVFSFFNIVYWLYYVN
T1 sequence (P18507 40-475): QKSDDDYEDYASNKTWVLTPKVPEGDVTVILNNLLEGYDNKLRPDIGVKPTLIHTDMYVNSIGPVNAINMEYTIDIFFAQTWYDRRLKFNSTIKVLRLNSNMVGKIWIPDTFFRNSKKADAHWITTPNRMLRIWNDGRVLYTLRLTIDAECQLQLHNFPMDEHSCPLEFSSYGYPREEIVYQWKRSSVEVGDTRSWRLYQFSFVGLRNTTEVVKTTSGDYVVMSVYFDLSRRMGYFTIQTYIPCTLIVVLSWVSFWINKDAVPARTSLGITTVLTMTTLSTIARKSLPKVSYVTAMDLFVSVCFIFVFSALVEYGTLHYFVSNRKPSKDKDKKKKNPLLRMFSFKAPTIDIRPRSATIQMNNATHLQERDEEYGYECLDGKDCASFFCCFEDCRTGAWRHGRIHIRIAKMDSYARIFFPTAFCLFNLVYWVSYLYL

**Q.** With `CCOc1cc(CC(=O)OCC(F)(F)F)ccc1OCC(=O)N(CC)CC` [Compound 5j, 2,2,2-trifluoroethyl 2-(4-(2-(diethylamino)-2-oxoethoxy)-3-ethoxyphenyl)acetate] as the molecule, how does the LD50 [1] read?
**A.** 192 mg/kg

**Q.** What about the TI [2] of the same molecule?
**A.** 7.8

**Q.** And the TI [3]?
**A.** 13.3

**Q.** What about the “duration of LORR after cessation of infusion” value (“duration of LORR” for short) ([4]; 1-h IV infusion) of the same molecule?
**A.** 125.8 ± 57.6 s

**Q.** What about the “duration of LORR” value ([4]; 3-h IV infusion) of the same molecule?
**A.** 132.9 ± 56.2 s

**Q.** And the “time to walk after infusion” value ([4]; 20-min IV infusion)?
**A.** 15.5 ± 7.55 s

**Q.** What about the “duration of LORR” value ([4]; 20-min IV infusion at half the HD50 per min after 2× HD50 induction) of the same molecule?
**A.** 117.5 ± 47.2 s

**Q.** What about the “maximum potentiation relative to that of propanidid” value [5] of the same molecule?
**A.** ~150%

**Q.** And the “maximum potentiation relative to that produced by propofol” value [5]?
**A.** approximately 50%

**Q.** And the EC50 ([5]; patch clamp, read-out: EC50, potentiation of EC20 muscimol evoked chloride currents)?
**A.** 12 µM

**Q.** And the half-life at 200 µM [6]?
**A.** 0.4 ± 0.1 min

**Q.** What about the half-life at 200 µM [7] of the same molecule?
**A.** 11.6 ± 1.6 min

**Q.** And the “stability in blood (in words)” value ([8]; dog blood)?
**A.** stable

**Q.** What about the half-life at 200 µM ([8]; male, whole blood, Beagle dog (n = 3), 37°C, 200 µM, read-out: Mean t1/2 Value) of the same molecule?
**A.** > 60 min

**Q.** And the “Octanol:Water Partition (Coefficient ± SD)” value [9]?
**A.** 648±36
